The values that follow come from patent US20070032465A1, “Pharmaceutical composition comprising a p2x7-receptor antagonist and a tumour necrosis factor alpha” (priority 2003, published 2007).

For the assay, the system named is Streptococcal cell wall (SCW)-induced arthritis in female Lewis rats. The assay is described as follows: Rat streptococcal cell wall (SCW)-induced arthritis: ankle swelling and von Frey mechanical threshold. It is filed as in vivo. Conditions: P2X7 antagonist 1 30 mg/kg oral bid, Etanercept 0.5 mg/kg s.c.; for % reduction of AUC (compared to arthritic vehicle control), Ankle swelling: AUC from day -1 to day 6 post-induction; for % reduction of AUC (compared to arthritic vehicle control), Von Frey threshold: von Frey filaments on days -1, 1, 3, 5. An excerpt: Assessment of Anti-Inflammatory Activity of TNFα Inhibitor/P2X7 Anatagonist Combinations in Rat Streptococcal Cell Wall-Induced Arthritis. ^1 1. Experimental procedure based on that described by Carlson R P, Jacobsen P B; ‘Comparison of adjuvant and streptococcal cell wall-induced arthritis in the rat’ in Morgan D W, Marshall L A, editors; In Vivo Models of Inflammation. Basel: Birkhauser Verlag; 1999.
Streptococcal cell wall (SCW)-induced arthritis was induced in the left ankle of female Lewis rats. Animals were sensitised by intra-articular injection of 5 μg (in 20 μL) SCW (Lee Laboratories) into the left ankle. Ankle swelling was assessed 3 days after injection and non-responders (animals with no apparent ankle swelling) were rejected. Responding animals were randomly allocated to the test groups.
Arthritis was induced 21 days after sensitisation by intravenous (iv) injection of SCW (100 μg in 500 μL saline). Animals were monitored and assessed on a daily basis through to termination 6 days after induction. The rats were housed on sawdust and provided with food and water ad libitum.
In this example the P2X7 antagonist 1, was orally dosed at 30 mg/kg (4 mL/kg, bid). The compound was dosed as a suspension in 1% (w/v) methylcellulose in deionised water and was freshly prepared on a daily basis. Dosing commenced 1 day prior to induction of arthritis and continued through to termination on day 6 post-induction. Etanercept (0.5 mg/kg) was administered by subcutaneous injection (1 mL/kg) 1 day prior to induction of arthritis and then on days 1, 3 and 5 post-induction.
Ankle diameters were measured with vernier callipers on a daily basis from day −1. Mechanical thresholds were assessed using von Frey filaments on days −1, 1, 3 and 5. The filaments were applied in increasing weights to the ankle region on the footpad of both feet. The first filament to induce a withdrawal response was considered to be the threshold.
Effects on ankle swelling and mechanical threshold were calculated on an area under the curve (AUC) basis, as the sum of the differences from individual day −1 values. The size and direction of the interaction was calculated and data analysis performed by ANOVA followed by Dunnett's test on the AUC data (SAS version 8.01).

With `Cc1ccc(C(=O)N2CC3CNCC(C2)O3)cc1NC(=O)CC12CC3CC(CC(C3)C1)C2.Cl` [P2X7 antagonist 1, N-[2-Methyl-5-(9-oxa-3,7-diazabicyclo[3.3.1]non-3-ylcarbonyl)phenyl]-tricyclo[3.3.1.1^3,7]decane-1-acetamide, hydrochloride], the “% reduction of AUC (compared to arthritic vehicle control), Ankle swelling” value came to 28.5 ± 13.5% and the “% reduction of AUC (compared to arthritic vehicle control), Von Frey threshold” value stood at 21.1 ± 10.9%.
The like results for Etanercept were, in that order, 44.0 ± 4.7 % and 7.4 ± 6.8%.
